Data on one compound can be found in ChEMBL document CHEMBL2331311, “Photoprotection of DNA (in vitro) by acyclothymidine dinucleosides” (Bioorg Med Chem Lett, 2013).

A word on the EC50: it is the concentration at which the effect is half-maximal.

The nature of experiment [1]: Cytotoxicity against mouse Cloudman S91 cells assessed as cell viability after 72 hrs by MTT assay. The format is cell-based. As to conditions: S91, 72 h. On the technique in general: Tetrazolium assays rely on reduction of a dye to a coloured formazan, in cell work by metabolically active cells.
Experiment [2] is described as follows: Photoprotection against UV light-induced Escherichia coli pEGFP-C1 DNA damage at 10 mM treated in cream formulation measured for 2 hrs by agarose gel electrophoresis. The format is functional.
Experiment [3] can be described thus: Cytotoxicity against human fibroblasts assessed as cell viability after 72 hrs by MTT assay. It counts as cell-based. As to conditions: Fibroblast.
Experiment [4] can be described thus: Photoprotection against UV light-induced Escherichia coli pEGFP-C1 DNA damage at 10 mM treated in 1N NaOH solution measured for 2 hrs by agarose gel electrophoresis. It counts as functional.
The next experiment has as its system RPMI-8226. The experiment is described as follows: Photoprotection against UV light-induced DNA damage in human RPMI8226 cells at 10 mM treated in cream formulation measured for 3 hrs by agarose gel electrophoresis. The format is functional, cell-based.
Another experiment relates to Vero. The experiment is described as follows: Cytotoxicity against african green monkey Vero cells assessed as cell viability after 72 hrs by MTT assay. The format is cell-based. Particulars: Chlorocebus sabaeus.
The subject of a further experiment is MCF-10A. The experiment is described as follows: Cytotoxicity against human MCF10A cells assessed as cell viability after 72 hrs by MTT assay. The format is cell-based.

Each structure is given as a SMILES string. Active and inactive are the calls of the source. The calls are words filed in the database; no cut-off is given here.

As to `Cc1cn(CCCn2cc(C)c(=O)[nH]c2=O)c(=O)[nH]c1=O`, the EC50 (in experiment [1]; in experiment [3]; in the experiment on Vero; in the experiment on MCF-10A) was above 100 µM throughout. In addition, the outcome (in experiment [2]; in experiment [4]; with RPMI-8226) was Active.
